{"source": "ChEMBL document CHEMBL4665853", "about": "“Inhibition of Macrophage Migration Inhibitory Factor by a Chimera of Two Allosteric Binders” (ACS Med Chem Lett, 2020)", "key": {"[1]": {"molecular_target": "T1, Macrophage migration inhibitory factor (Homo sapiens, UniProt P14174)", "T1 sequence (P14174 whole entry)": "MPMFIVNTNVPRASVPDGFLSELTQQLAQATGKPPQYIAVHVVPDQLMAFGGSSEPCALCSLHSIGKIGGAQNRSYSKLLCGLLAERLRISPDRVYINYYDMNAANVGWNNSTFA", "assay": "Inhibition of recombinant biotinylated human MIF tautomerase activity expressed in Escherichia coli BL21 DE3 assessed as reduction in tautomerization of keto-p-hydroxyphenylpyruvate using keto-p-hydroxyphenylpyrivate as substrate preincubated for 30 mins followed by substrate addition by HTS assay"}, "[2]": {"molecular_target": "T1, Macrophage migration inhibitory factor", "assay": "Inhibition of recombinant human MIF expressed in Escherichia coli BL21 DE3 binding to recombinant soluble human CD74 receptor ectodomain (73 to 232 residues) expressed in Escherichia coli BL21 (DE3) pLysS using p-nitrophenyl phosphate as substrate by ELISA"}, "[3]": {"molecular_target": "T1, Macrophage migration inhibitory factor", "assay": "Binding affinity to recombinant biotinylated human MIF expressed in Escherichia coli BL21 DE3 by surface plasmon resonance assay"}, "[4]": {"molecular_target": "T1, Macrophage migration inhibitory factor", "assay": "Inhibition of MIF-induced IL-8 secretion in human foreskin fibroblasts incubated for 30 mins by ELISA"}, "[5]": {"molecular_target": "T1, Macrophage migration inhibitory factor", "assay": "Non-competitive inhibition of recombinant human MIF assessed as inhibition constant using varying levels of p-hydroxyphenylpyruvate as substrate by Lineweaver-Burk plot analysis"}}}
{"smiles": "CC(C)C(=O)c1c(Cc2cccc(/N=N/c3ccc4c(S(=O)(=O)O)cc(S(=O)(=O)O)c(N)c4c3O)c2)nn2ccccc12", "values": [{"measurement": "IC50", "setting": "[1]", "value": 7.59, "unit": "µM"}, {"measurement": "IC50", "setting": "[2]", "value": 0.93, "unit": "µM"}, {"measurement": "Kd", "setting": "[3]", "value": 6.86, "unit": "µM"}, {"measurement": "IC50", "setting": "[4]", "value": 4.42, "unit": "µM"}]}
{"smiles": "CC(C)C(=O)c1c(C(C)C)nn2ccccc12", "note": "[IBUDILAST]", "values": [{"measurement": "Ki", "setting": "[5]", "value": 30.9, "unit": "µM"}, {"measurement": "Kd", "setting": "[3]", "value": 1.4, "unit": "µM"}]}
